According to patent US10730905B2, “Substituted heteropentadieno-pyrrolopyrimidine ribonucleosides for therapeutic use” (USTAV ORGANICKE CHEMIE A BIOCHEMIE AV CR, V.V.I., priority 2016, dated 2020):

Legend:
[1] = test system: K562-Tax (human acute myeloid leukemia, paclitaxel resistant subline); assay: MTT cytotoxic test, K562-TAX; format: cell-based; details: K562-TAX cells
Excerpt: (§1) MTT test (Nosková V. et al., Neoplasma 2002, 49, 418-425) was used for in vitro evaluation of antitumor activities of newly synthesized compounds on cell lines derived from normal tissues or tumors. Specifically, cell lines K562 (human acute myeloid leukemia); K562-Tax (human acute myeloid leukemia, paclitaxel resistant subline, overexpress multiple drug resistant protein PgP); CEM (T-lymfoblastic leukemia); CEM-DNR-bulk (T-lymfoblastic leukemia, doxorubicin resistant); A549 (human lung adenocarcinoma); HCT116p53 wt (human colorectal cancer, wild-type); HCT116p53−/− (human colorectal cancer, mutant p53) a U2OS (human bone osteosarcoma) were used. Express characteristics, susceptibility profiles of classic antitumor drugs as well as methodology of cytotoxic MTT test have been repeatedly published (Denizot, F.; Lang, R., J. Immunol. Meth. 1986, 89, 271-277; Noskova, V., see above; S̆arek J. et al., J, Med. Chem., 2003).

[2] = test system: HCT116p53−/− (human colorectal cancer, mutant p53); assay: MTT cytotoxic test, HCT116p53; format: cell-based; details: HCT116p53 cells (p53 −/−)
Excerpt: as §1

[3] = test system: U2OS (human bone osteosarcoma); assay: MTT cytotoxic test, U2OS; format: cell-based; details: U2OS cells
Excerpt: as §1

[4] = test system: CEM-DNR-bulk (T-lymfoblastic leukemia, doxorubicin resistant); assay: MTT cytotoxic test, CEM-DNR; format: cell-based; details: Homo sapiens, CEM-DNR cells
Excerpt: as §1

[5] = test system: A549 (human lung adenocarcinoma); assay: MTT cytotoxic test, A549; format: cell-based; details: A549 cells
Excerpt: as §1

[6] = test system: K562 (human acute myeloid leukemia); assay: MTT cytotoxic test, K562; format: cell-based; details: K562 cells
Excerpt: as §1

[7] = test system: CCRF-CEM (CEM, T-lymfoblastic leukemia); assay: MTT cytotoxic test, CCRF-CEM; format: cell-based; details: Homo sapiens, CCRF-CEM cells
Excerpt: as §1

[8] = MTT cytotoxic test, MRC-5; format: cell-based; details: MRC-5 cells (normal fibroblasts), MRC-5 normal human fibroblasts
[9] = test system: HCT116p53 wt (human colorectal cancer, wild-type); assay: MTT cytotoxic test, HCT116; format: cell-based; details: HCT-116, HCT116 cells, p53 wild type
Excerpt: as §1

SMILES | melting point | IC50 [1] | IC50 [2] | IC50 [3] | IC50 [4] | IC50 [5] | IC50 [6] | IC50 [7] | IC50 [8] | IC50 [9]
OC[C@H]1O[C@@H](n2c3ccoc3c3c(-c4ccco4)ncnc32)[C@H](O)[C@@H]1O [Compound 1e, 4-(Furan-2-yl)-8-(β-D-ribofuranosyl)-8H-furo[2′,3′:4,5]pyrrolo[2,3-d]pyrimidine] | – | 0.9 to 10 µM | 25 to 50 µM | 0.9 to 10 µM | 25 to 50 µM | 25 to 50 µM | 0.9 to 10 µM | 0.2 to 0.9 µM | 25 to 50 µM | 25 to 50 µM
CSc1ncnc2c1c1c(ccn1C)n2[C@@H]1O[C@H](CO)[C@@H](O)[C@H]1O [Compound 2c, 5-Methyl-4-(methylsulfanyl)-8-(β-D-ribofuranosyl)-5,8-dihydropyrrolo[2′,3′:4,5]pyrrolo-[2,3-d]-pyrimidine] | 212 to 214 °C | 25 to 50 µM | 0.2 to 0.9 µM | 0.9 to 10 µM | 25 to 50 µM | 25 to 50 µM | 0.2 to 0.9 µM | 0.2 to 0.9 µM | 25 to 50 µM | 0.2 to 0.9 µM
Cc1ncnc2c1c1occc1n2[C@@H]1O[C@H](CO)[C@@H](O)[C@H]1O [Compound 1a, 4-Methyl-8-(β-D-ribofuranosyl)-8H-furo[2′,3′:4,5]pyrrolo[2,3-d]pyrimidine] | – | 0.9 to 10 µM | 0.2 to 0.9 µM | 0.2 to 0.9 µM | 25 to 50 µM | 0.9 to 10 µM | 0.2 to 0.9 µM | 0.2 to 0.9 µM | 25 to 50 µM | 0.2 to 0.9 µM
Cn1ccc2c1c1c(N)ncnc1n2[C@@H]1O[C@H](CO)[C@@H](O)[C@H]1O [Compound 2d, 5-methyl-8-(β-D-ribofuranosyl)-5,8-dihydropyrrolo[2′,3′:4,5]pyrrolo[2,3-d]pyrimidin-4-amine] | 240 to 245 °C (dec.) | 25 to 50 µM | 25 to 50 µM | 25 to 50 µM | 25 to 50 µM | 25 to 50 µM | 25 to 50 µM | 25 to 50 µM | 25 to 50 µM | 25 to 50 µM
OC[C@H]1O[C@@H](n2c3ccoc3c3c(-c4cc5ccccc5o4)ncnc32)[C@H](O)[C@@H]1O [Compound 1g, 4-(Benzofuran-2-yl)-8-(β-D-ribofuranosyl)-8H-furo[2′,3′:4,5]pyrrolo[2,3-d]pyrimidine] | – | 10 to 25 µM | 25 to 50 µM | 25 to 50 µM | 25 to 50 µM | 25 to 50 µM | 25 to 50 µM | 10 to 25 µM | 25 to 50 µM | 25 to 50 µM
Nc1ncnc2c1c1occc1n2[C@@H]1O[C@H](CO)[C@@H](O)[C@H]1O [Compound 1d, 8-(β-D-ribofuranosyl)-8H-furo[2′,3′:4,5]pyrrolo[2,3-d]pyrimidin-4-amine] | 246 to 253 °C | 25 to 50 µM | 25 to 50 µM | 0.9 to 10 µM | 25 to 50 µM | 25 to 50 µM | 0.9 to 10 µM | 25 to 50 µM | 25 to 50 µM | 25 to 50 µM
CN(C)c1ncnc2c1c1occc1n2[C@@H]1O[C@H](CO)[C@@H](O)[C@H]1O [Compound 1h, N,N-dimethyl-8-(β-D-ribofuranosyl)-8H-furo[2′,3′:4,5]pyrrolo[2,3-d]pyrimidin-4-amine] | 212 to 255 °C (dec.) | 25 to 50 µM | 25 to 50 µM | 25 to 50 µM | 25 to 50 µM | 25 to 50 µM | 25 to 50 µM | 25 to 50 µM | 25 to 50 µM | 25 to 50 µM
CSc1ncnc2c1c1occc1n2[C@@H]1O[C@H](CO)[C@@H](O)[C@H]1O [Compound 1c] | 213 to 217 °C | 0.9 to 10 µM | 0.2 to 0.9 µM | 0.2 to 0.9 µM | 0.9 to 10 µM | 0.9 to 10 µM | 0.2 to 0.9 µM | 0.2 to 0.9 µM | 0.9 to 10 µM | 0.2 to 0.9 µM
OC[C@H]1O[C@@H](n2c3ccoc3c3c(-c4ccoc4)ncnc32)[C@H](O)[C@@H]1O [Compound 1f, 4-(Furan-3-yl)-8-(β-D-ribofuranosyl)-8H-furo[2′,3′:4,5]pyrrolo[2,3-d]pyrimidine] | – | 0.9 to 10 µM | 10 to 25 µM | 0.2 to 0.9 µM | 25 to 50 µM | 25 to 50 µM | 0.2 to 0.9 µM | 0.2 to 0.9 µM | 25 to 50 µM | 10 to 25 µM
Cn1ccc2c1c1c(-c3ccco3)ncnc1n2[C@@H]1O[C@H](CO)[C@@H](O)[C@H]1O [Compound 2e, 4-(Furan-2-yl)-5-methyl-8-(β-D-ribofuranosyl)-5,8-dihydropyrrolo[2′,3′:4,5]pyrrolo[2,3-d]pyrimidine] | 245 to 253 °C | 25 to 50 µM | 25 to 50 µM | 0.9 to 10 µM | 25 to 50 µM | 25 to 50 µM | 25 to 50 µM | 25 to 50 µM | 25 to 50 µM | 25 to 50 µM

Now from value to compound, other results behind:

melting point | SMILES | IC50 [1] | IC50 [2] | IC50 [3] | IC50 [4] | IC50 [5] | IC50 [6] | IC50 [7] | IC50 [8] | IC50 [9]
237 to 241 °C | Cc1ncnc2c1c1c(ccn1C)n2[C@@H]1O[C@H](CO)[C@@H](O)[C@H]1O [Compound 2a, 4,5-Dimethyl-8-(β-D-ribofuranosyl)-5,8-dihydropyrrolo[2′,3′:4,5]pyrrolo[2,3-d]pyrimidine] | 25 to 50 µM | 0.2 to 0.9 µM | 0.2 to 0.9 µM | 25 to 50 µM | – | 0.2 to 0.9 µM | 0.2 to 0.9 µM | 25 to 50 µM | 0.2 to 0.9 µM
145 to 154 °C | Cn1ccc2c1c1c(-c3cc4ccccc4o3)ncnc1n2[C@@H]1O[C@H](CO)[C@@H](O)[C@H]1O [Compound 2g, 4-(Benzofuran-2-yl)-5-methyl-8-(β-D-ribofuranosyl)-5,8-dihydropyrrolo[2′,3′:4,5]pyrrolo[2,3-d]pyrimidine] | 25 to 50 µM | 25 to 50 µM | 25 to 50 µM | 25 to 50 µM | 25 to 50 µM | 25 to 50 µM | 10 to 25 µM | 25 to 50 µM | 25 to 50 µM
217 to 219 °C | Cn1ccc2c1c1c(Cl)ncnc1n2[C@@H]1O[C@H](CO)[C@@H](O)[C@H]1O [Compound 2i, 4-chloro-5-methyl-8-(β-D-ribofuranosyl)-5,8-dihydropyrrolo[2′,3′:4,5]pyrrolo[2,3-d]pyrimidine] | 25 to 50 µM | 0.01 to 0.2 µM | 0.9 to 10 µM | 25 to 50 µM | 0.9 to 10 µM | 0.01 to 0.2 µM | 0.01 to 0.2 µM | 25 to 50 µM | 0.01 to 0.2 µM
99 to 106 °C | CN(C)c1ncnc2c1c1c(ccn1C)n2[C@@H]1O[C@H](CO)[C@@H](O)[C@H]1O [Compound 2h, N,N,5-trimethyl-8-(β-D-ribofuranosyl)-5,8-dihydropyrrolo[2′,3′:4,5]pyrrolo[2,3-d]pyrimidin-4-amine] | 25 to 50 µM | 25 to 50 µM | 25 to 50 µM | 25 to 50 µM | 25 to 50 µM | 25 to 50 µM | 25 to 50 µM | 25 to 50 µM | 25 to 50 µM
202 to 207 °C | Cn1ccc2c1c1c(-c3ccoc3)ncnc1n2[C@@H]1O[C@H](CO)[C@@H](O)[C@H]1O [Compound 2f, 4-(Furan-3-yl)-5-methyl-8-(β-D-ribofuranosyl)-5,8dihydropyrrolo[2′,3′:4,5]pyrrolo[2,3-d]pyrimidine] | 25 to 50 µM | 0.9 to 10 µM | 0.9 to 10 µM | 25 to 50 µM | 25 to 50 µM | 0.9 to 10 µM | 25 to 50 µM | 25 to 50 µM | 25 to 50 µM
231 to 234 °C | COc1ncnc2c1c1c(ccn1C)n2[C@@H]1O[C@H](CO)[C@@H](O)[C@H]1O [Compound 2b, 4-Methoxy-5-methyl-8-(β-D-ribofuranosyl)-5,8-dihydropyrrolo[2′,3′:4,5]pyrrolo[2,3-d]pyrimidine] | 25 to 50 µM | 0.2 to 0.9 µM | 0.9 to 10 µM | 25 to 50 µM | 25 to 50 µM | 0.2 to 0.9 µM | 0.2 to 0.9 µM | 25 to 50 µM | 0.2 to 0.9 µM
216 to 219 °C | COc1ncnc2c1c1occc1n2[C@@H]1O[C@H](CO)[C@@H](O)[C@H]1O [Compound 1b, 4-Methoxy-8-(β-D-ribofuranosyl)-8H-furo[2′,3′:4,5]pyrrolo[2,3-d]pyrimidine] | 0.2 to 0.9 µM | 0.2 to 0.9 µM | 0.2 to 0.9 µM | 0.9 to 10 µM | 0.9 to 10 µM | 0.2 to 0.9 µM | 0.01 to 0.2 µM | 10 to 25 µM | 0.2 to 0.9 µM
